Source: ChEMBL document CHEMBL4507259 (2021)

Experiments:
[1] = target: Rho-associated protein kinase 1 (Homo sapiens) (UniProt Q13464); conditions: Compound concentration 1000.0 nM
[2] = target: Dual specificity protein kinase CLK4 (Homo sapiens) (UniProt Q9HAZ1); conditions: Compound concentration 1000.0 nM
[3] = target: Dual specificity testis-specific protein kinase 1 (Homo sapiens) (UniProt Q15569); conditions: Compound concentration 1000.0 nM
[4] = target: Ribosomal protein S6 kinase alpha-3 (Homo sapiens) (UniProt P51812); conditions: Compound concentration 1000.0 nM
Sequence of Ribosomal protein S6 kinase alpha-3 (Homo sapiens) (P51812 whole entry): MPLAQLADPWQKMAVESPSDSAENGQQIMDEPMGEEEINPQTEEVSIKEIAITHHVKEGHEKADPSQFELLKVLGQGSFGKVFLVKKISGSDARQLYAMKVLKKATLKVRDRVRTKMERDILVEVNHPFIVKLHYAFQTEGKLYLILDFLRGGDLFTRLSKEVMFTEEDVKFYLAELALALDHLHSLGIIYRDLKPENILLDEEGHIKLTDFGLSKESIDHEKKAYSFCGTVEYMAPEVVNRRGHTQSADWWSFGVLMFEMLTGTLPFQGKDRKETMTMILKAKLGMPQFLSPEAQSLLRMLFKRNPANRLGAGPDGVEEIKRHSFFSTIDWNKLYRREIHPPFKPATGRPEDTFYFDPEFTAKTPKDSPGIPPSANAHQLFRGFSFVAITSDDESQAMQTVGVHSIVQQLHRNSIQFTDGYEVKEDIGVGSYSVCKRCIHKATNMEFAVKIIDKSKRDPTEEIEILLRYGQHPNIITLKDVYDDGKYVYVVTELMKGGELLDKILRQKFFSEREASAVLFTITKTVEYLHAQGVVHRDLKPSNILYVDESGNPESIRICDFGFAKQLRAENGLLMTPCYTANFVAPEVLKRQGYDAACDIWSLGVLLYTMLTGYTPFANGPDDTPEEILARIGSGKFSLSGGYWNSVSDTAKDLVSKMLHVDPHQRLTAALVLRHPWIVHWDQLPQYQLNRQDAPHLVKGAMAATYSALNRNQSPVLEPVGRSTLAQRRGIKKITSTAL

[5] = target: Mitogen-activated protein kinase 13 (Homo sapiens) (UniProt O15264); conditions: Compound concentration 1000.0 nM
[6] = target: Cyclin-dependent kinase 5 (Homo sapiens) (UniProt Q00535); conditions: Compound concentration 1000.0 nM
[7] = target: Mast/stem cell growth factor receptor Kit (Homo sapiens) (UniProt P10721); conditions: Compound concentration 1000.0 nM
[8] = test system: Receptor-type tyrosine-protein kinase FLT3 (Homo sapiens), P36888 [K663Q]; conditions: Compound concentration 1000.0 nM
[9] = target: Serine/threonine-protein kinase Sgk2 (Homo sapiens) (UniProt Q9HBY8); conditions: Compound concentration 1000.0 nM
[10] = test system: Receptor-type tyrosine-protein kinase FLT3 (Homo sapiens), P36888 [D835Y]; conditions: Compound concentration 1000.0 nM
[11] = target: Mitogen-activated protein kinase kinase kinase 6 (Homo sapiens) (UniProt O95382); conditions: Compound concentration 1000.0 nM
[12] = target: Aurora kinase B (Homo sapiens) (UniProt Q96GD4); conditions: Compound concentration 1000.0 nM
[13] = target: Serine/threonine-protein kinase pim-1 (Homo sapiens) (UniProt P11309); conditions: Compound concentration 1000.0 nM
[14] = target: Sigma non-opioid intracellular receptor 1 (Homo sapiens) (UniProt Q99720); conditions: Compound concentration 10.0 uM
[15] = target: Serine/threonine-protein kinase PLK1 (Homo sapiens) (UniProt P53350); conditions: Compound concentration 1000.0 nM
[16] = target: Ephrin type-B receptor 3 (Homo sapiens) (UniProt P54753); conditions: Compound concentration 1000.0 nM
[17] = test system: Epidermal growth factor receptor (Homo sapiens), P00533 [UNDEFINED MUTATION]; conditions: Compound concentration 1000.0 nM
[18] = target: Tyrosine-protein kinase receptor UFO (Homo sapiens) (UniProt P30530); conditions: Compound concentration 1000.0 nM
Sequence of Tyrosine-protein kinase receptor UFO (Homo sapiens) (P30530 whole entry): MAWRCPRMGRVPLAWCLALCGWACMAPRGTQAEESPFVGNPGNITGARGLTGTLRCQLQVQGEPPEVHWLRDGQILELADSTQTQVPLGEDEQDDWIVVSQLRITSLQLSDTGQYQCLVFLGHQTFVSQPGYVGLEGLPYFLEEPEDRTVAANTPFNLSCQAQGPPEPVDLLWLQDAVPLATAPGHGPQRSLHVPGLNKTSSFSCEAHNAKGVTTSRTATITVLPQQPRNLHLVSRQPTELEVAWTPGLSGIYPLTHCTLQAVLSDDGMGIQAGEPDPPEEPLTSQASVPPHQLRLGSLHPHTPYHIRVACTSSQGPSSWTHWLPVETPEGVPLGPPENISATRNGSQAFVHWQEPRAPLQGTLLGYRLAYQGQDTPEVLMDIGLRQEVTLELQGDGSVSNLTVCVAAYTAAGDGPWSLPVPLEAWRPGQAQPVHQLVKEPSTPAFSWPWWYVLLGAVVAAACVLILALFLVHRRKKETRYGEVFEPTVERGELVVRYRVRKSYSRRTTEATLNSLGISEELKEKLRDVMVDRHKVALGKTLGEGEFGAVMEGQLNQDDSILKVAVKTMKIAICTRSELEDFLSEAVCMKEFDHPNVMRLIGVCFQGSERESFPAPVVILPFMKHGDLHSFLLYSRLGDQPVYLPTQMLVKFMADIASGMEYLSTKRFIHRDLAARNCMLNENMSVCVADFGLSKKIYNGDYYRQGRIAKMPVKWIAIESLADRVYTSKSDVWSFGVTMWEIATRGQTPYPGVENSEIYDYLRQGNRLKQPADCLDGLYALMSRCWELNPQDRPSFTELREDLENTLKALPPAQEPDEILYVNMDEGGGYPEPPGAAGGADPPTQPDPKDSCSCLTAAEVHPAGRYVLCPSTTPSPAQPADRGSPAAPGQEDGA

[19] = target: Calcium/calmodulin-dependent protein kinase type 1 (Homo sapiens) (UniProt Q14012); conditions: Compound concentration 1000.0 nM
[20] = target: Serine/threonine-protein kinase Nek7 (Homo sapiens) (UniProt Q8TDX7); conditions: Compound concentration 1000.0 nM
[21] = test system: Tyrosine-protein kinase ABL1 (Homo sapiens), P00519 [H396P]; conditions: Compound concentration 1000.0 nM
[22] = target: Phosphatidylinositol 4-phosphate 5-kinase type-1 alpha (Homo sapiens) (UniProt Q99755); conditions: Compound concentration 1000.0 nM
[23] = target: Inhibitor of nuclear factor kappa-B kinase subunit alpha (Homo sapiens) (UniProt O15111); conditions: Compound concentration 1000.0 nM
[24] = target: Serine/threonine-protein kinase TBK1 (Homo sapiens) (UniProt Q9UHD2); conditions: Compound concentration 1000.0 nM
[25] = target: Calcium/calmodulin-dependent protein kinase type 1G (Homo sapiens) (UniProt Q96NX5); conditions: Compound concentration 1000.0 nM
[26] = target: Mitogen-activated protein kinase 3 (Homo sapiens) (UniProt P27361); conditions: Compound concentration 1000.0 nM
[27] = target: Tyrosine-protein kinase Tec (Homo sapiens) (UniProt P42680); conditions: Compound concentration 1000.0 nM
Sequence of Tyrosine-protein kinase Tec (Homo sapiens) (P42680 whole entry): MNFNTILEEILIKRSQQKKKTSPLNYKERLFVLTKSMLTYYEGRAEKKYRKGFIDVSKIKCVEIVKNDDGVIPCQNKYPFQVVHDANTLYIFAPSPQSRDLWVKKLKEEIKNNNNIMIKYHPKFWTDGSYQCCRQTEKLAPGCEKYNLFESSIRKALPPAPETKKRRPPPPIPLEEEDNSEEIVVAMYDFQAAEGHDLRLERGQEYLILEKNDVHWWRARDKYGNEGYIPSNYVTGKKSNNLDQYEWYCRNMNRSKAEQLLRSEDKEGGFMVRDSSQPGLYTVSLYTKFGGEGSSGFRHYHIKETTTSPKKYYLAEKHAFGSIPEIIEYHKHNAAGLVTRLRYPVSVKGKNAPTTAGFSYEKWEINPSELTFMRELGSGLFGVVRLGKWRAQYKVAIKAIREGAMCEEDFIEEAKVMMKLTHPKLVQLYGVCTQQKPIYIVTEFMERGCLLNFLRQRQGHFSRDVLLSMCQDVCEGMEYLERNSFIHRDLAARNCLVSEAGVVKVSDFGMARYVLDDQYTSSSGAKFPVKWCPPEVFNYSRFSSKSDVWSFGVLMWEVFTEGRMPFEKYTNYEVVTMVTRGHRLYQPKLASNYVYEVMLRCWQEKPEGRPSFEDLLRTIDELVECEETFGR

[28] = target: T1, Muscarinic acetylcholine receptor M2 (Homo sapiens) (UniProt P08172); conditions: Compound concentration 10.0 uM
T1 sequence (whole entry): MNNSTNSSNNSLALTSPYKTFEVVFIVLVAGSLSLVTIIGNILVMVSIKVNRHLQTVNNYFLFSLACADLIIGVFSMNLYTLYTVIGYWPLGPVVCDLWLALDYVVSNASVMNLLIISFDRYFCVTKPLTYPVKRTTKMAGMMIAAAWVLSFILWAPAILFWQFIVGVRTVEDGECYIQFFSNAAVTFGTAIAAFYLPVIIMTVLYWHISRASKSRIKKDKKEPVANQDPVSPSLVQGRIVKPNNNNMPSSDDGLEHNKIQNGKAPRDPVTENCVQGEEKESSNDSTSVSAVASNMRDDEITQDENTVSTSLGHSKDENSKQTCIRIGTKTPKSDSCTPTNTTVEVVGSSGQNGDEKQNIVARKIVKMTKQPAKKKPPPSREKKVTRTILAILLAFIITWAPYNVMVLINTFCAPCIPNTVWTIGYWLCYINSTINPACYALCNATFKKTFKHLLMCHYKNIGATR

[29] = target: Bone morphogenetic protein receptor type-1B (Homo sapiens) (UniProt O00238); conditions: Compound concentration 1000.0 nM
[30] = target: Type-1 angiotensin II receptor (Homo sapiens) (UniProt P30556); assay: AT1 (h) CEREP ligand profiling; conditions: filed as antagonist, Compound concentration 10.0 uM
[31] = test system: ALK tyrosine kinase receptor (Homo sapiens), Q9UM73 [C1156Y]; conditions: Compound concentration 1000.0 nM
[32] = target: 5-hydroxytryptamine receptor 1B (Homo sapiens) (UniProt P28222); conditions: Compound concentration 10.0 uM
[33] = test system: Epidermal growth factor receptor (Homo sapiens), P00533 [G719C]; conditions: Compound concentration 1000.0 nM
[34] = test system: Mast/stem cell growth factor receptor Kit (Homo sapiens), P10721 [V559D]; conditions: Compound concentration 1000.0 nM
[35] = target: G protein-coupled receptor kinase 4 (Homo sapiens) (UniProt P32298); conditions: Compound concentration 1000.0 nM
[36] = target: Mitogen-activated protein kinase kinase kinase 1 (Homo sapiens) (UniProt Q13233); conditions: Compound concentration 1000.0 nM
Sequence of Mitogen-activated protein kinase kinase kinase 1 (Homo sapiens) (Q13233 whole entry): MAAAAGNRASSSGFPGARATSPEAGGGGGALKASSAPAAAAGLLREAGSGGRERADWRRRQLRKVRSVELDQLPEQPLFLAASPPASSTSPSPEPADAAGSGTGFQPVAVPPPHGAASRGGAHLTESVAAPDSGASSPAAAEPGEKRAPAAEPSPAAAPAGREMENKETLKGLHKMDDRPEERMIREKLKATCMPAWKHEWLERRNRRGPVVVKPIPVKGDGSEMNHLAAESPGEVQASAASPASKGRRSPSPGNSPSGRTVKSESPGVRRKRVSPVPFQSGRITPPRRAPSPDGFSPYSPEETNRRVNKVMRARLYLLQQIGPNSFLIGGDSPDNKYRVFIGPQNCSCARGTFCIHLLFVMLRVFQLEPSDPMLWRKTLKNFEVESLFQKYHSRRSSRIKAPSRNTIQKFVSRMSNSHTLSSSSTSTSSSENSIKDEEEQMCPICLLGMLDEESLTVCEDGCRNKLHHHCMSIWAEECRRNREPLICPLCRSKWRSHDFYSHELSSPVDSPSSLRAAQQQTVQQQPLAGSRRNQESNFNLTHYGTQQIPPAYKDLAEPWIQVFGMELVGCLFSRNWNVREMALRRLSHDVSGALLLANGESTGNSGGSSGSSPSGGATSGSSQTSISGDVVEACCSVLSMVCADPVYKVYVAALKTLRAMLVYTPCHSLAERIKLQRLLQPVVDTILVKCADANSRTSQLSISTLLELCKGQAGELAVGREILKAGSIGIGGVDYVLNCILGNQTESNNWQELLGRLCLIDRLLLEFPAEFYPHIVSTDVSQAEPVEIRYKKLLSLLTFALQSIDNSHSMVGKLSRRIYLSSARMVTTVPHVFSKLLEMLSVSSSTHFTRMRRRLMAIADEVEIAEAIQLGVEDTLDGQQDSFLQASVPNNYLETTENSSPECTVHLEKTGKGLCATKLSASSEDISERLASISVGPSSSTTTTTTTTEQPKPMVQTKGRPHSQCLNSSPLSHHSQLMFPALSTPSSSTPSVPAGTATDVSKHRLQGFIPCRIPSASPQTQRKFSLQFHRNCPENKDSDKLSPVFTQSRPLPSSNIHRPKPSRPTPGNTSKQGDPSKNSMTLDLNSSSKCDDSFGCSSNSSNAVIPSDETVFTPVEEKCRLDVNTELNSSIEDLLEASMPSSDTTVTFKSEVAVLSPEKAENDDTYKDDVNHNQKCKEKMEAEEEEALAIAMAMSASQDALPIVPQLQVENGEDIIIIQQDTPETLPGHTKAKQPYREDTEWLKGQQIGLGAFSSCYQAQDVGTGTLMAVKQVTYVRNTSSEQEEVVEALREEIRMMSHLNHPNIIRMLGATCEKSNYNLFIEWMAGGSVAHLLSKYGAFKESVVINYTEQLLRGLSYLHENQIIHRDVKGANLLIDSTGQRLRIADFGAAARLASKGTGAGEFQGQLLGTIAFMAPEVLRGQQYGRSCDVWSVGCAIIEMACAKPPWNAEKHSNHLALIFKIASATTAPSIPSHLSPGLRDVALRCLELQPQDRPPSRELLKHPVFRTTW

[37] = target: Leucine-rich repeat serine/threonine-protein kinase 2 (Homo sapiens) (UniProt Q5S007); conditions: Compound concentration 1000.0 nM
[38] = target: Dual specificity tyrosine-phosphorylation-regulated kinase 1B (Homo sapiens) (UniProt Q9Y463); conditions: Compound concentration 1000.0 nM
Sequence of Dual specificity tyrosine-phosphorylation-regulated kinase 1B (Homo sapiens) (Q9Y463 whole entry, looked up): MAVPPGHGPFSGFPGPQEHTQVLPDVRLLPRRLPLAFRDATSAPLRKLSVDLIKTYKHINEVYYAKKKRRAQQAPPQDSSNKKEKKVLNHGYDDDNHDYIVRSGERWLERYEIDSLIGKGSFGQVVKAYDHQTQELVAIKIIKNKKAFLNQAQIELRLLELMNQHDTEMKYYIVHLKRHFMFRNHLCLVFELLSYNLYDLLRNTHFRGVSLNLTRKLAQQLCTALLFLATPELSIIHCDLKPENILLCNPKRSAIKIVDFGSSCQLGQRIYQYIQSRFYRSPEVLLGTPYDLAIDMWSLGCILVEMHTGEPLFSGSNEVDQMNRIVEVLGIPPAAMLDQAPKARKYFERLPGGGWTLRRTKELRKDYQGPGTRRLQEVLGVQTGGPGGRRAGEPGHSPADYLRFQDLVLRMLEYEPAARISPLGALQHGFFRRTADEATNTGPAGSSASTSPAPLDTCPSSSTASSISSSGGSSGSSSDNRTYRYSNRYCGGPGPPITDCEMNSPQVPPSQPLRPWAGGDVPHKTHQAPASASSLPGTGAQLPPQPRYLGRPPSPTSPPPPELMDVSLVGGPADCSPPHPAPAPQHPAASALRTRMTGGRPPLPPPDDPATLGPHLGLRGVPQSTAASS

Sequence of Dual specificity protein kinase CLK4 (Homo sapiens) (Q9HAZ1 whole entry, looked up): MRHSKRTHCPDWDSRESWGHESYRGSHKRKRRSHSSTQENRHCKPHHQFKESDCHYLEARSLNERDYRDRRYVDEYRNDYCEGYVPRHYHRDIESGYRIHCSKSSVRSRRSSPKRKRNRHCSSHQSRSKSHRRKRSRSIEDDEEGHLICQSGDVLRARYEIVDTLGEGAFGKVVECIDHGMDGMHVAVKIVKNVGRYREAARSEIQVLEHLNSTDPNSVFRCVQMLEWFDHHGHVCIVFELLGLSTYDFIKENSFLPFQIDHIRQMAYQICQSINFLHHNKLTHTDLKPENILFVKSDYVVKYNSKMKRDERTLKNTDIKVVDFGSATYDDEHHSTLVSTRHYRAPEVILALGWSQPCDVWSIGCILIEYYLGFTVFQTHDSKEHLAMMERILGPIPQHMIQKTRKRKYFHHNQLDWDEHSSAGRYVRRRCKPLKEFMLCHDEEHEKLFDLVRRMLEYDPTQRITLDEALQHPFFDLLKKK

CNC(=O)Nc1ccc2c(c1)CC[C@@]21OC(=O)N(CC(=O)N(Cc2ccc(F)cc2)[C@@H](C)C(F)(F)F)C1=O [A-485]
residual activity [1]: 72%
residual activity [2]: 90%
residual activity [3]: 73%
residual activity [4]: 87%
residual activity [5]: 83%
residual activity [6]: 84%
residual activity [7]: 97%
residual activity [8]: 100%
residual activity [9]: 100%
residual activity [10]: 100%
residual activity [11]: 86%
residual activity [12]: 86%
residual activity [13]: 100%
inhibition [14]: 34.5%
residual activity [15]: 63%
residual activity [16]: 80%
residual activity [17]: 67%
residual activity [18]: 90%
residual activity [19]: 95%
residual activity [20]: 91%
residual activity [21]: 49%
residual activity [22]: 95%
residual activity [23]: 92%
residual activity [24]: 83%
residual activity [25]: 100%
residual activity [26]: 92%
residual activity [27]: 90%
inhibition [28]: -0.28%
residual activity [29]: 82%
inhibition [30]: 18%
residual activity [31]: 88%
inhibition [32]: 9.82%
residual activity [33]: 97%
residual activity [34]: 100%
residual activity [35]: 98%
residual activity [36]: 68%
residual activity [37]: 79%
residual activity [38]: 81%

CNC(=O)Nc1ccc2c(c1)[C@@]1(CC2)OC(=O)N(CC(=O)N(Cc2ccc(F)cc2)[C@@H](C)C(F)(F)F)C1=O [A-486]
residual activity [1]: 81%
residual activity [2]: 78%
residual activity [3]: 100%
residual activity [4]: 84%
residual activity [5]: 97%
residual activity [6]: 79%
residual activity [7]: 89%
residual activity [8]: 84%
residual activity [9]: 88%
residual activity [10]: 96%
residual activity [11]: 82%
residual activity [12]: 93%
residual activity [13]: 100%
inhibition [14]: 17.7%
residual activity [15]: 82%
residual activity [16]: 86%
residual activity [17]: 85%
residual activity [18]: 67%
residual activity [19]: 100%
residual activity [20]: 100%
residual activity [21]: 53%
residual activity [22]: 89%
residual activity [23]: 100%
residual activity [24]: 84%
residual activity [25]: 100%
residual activity [26]: 100%
residual activity [27]: 100%
inhibition [28]: 3.15%
residual activity [29]: 100%
inhibition [30]: 17%
residual activity [31]: 100%
inhibition [32]: 11.2%
residual activity [33]: 100%
residual activity [34]: 100%
residual activity [35]: 100%
residual activity [36]: 95%
residual activity [37]: 71%
residual activity [38]: 100%
